Test results reported in US10421779B2, “Carbazole compound having anti-virus activity” (priority 2016, dated 2019).

Columns and labels:
Format in all cases: cell-based
[1] = system: HCV genotype 1 b (HCV replicon system); experiment: HCV replicon system genotype 1b, Renilla luciferase activity; details: Hepatitis C virus, 72 h; HCV genotype 1b replicon, Rluc, 3 days; read-out: Replicon EC50 1b type
Procedure, shortened: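 Genotype 1b replicon carrying Renilla luciferase and 1b non-structural genes, treated with compound at various concentrations. Luciferase activity read after 3 days relative to control to derive EC50.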

[2] = system: hepatitis C virus mutant L31V of the NS5A region; experiment: Efficacy on resistant mutant L31V; details: read-out: EC50 L31V
Source text: (§1) As a mutant resistant to hepatitis C virus, L31V and Y93H of the NS5A region, and double mutants thereof were applied.

[3] = system: hepatitis C virus mutant Y93H of the NS5A region; experiment: Efficacy on resistant mutant Y93H; details: read-out: EC50 Y93H
Source text: as §1

[4] = system: hepatitis C virus double mutant L31V and Y93H of the NS5A region; experiment: Efficacy on resistant double mutant (L31V and Y93H); details: read-out: EC50 Double mutant
Source text: as §1

COC(=O)N[C@@H](C(=O)N1CCC[C@H]1C(=O)Nc1ccc2c3ccc(NC(=O)[C@@H]4CCCN4C(=O)[C@H](NC(=O)OC)c4ccccc4)cc3n(C(C)c3ccccc3)c2c1)c1ccccc1 (stereo partly drawn) [Example 15, dimethyl ((1R,1′R)-((2S,2′S)-(((9-(1-phenylethyl)-9H-carbazole-2,7-diyl)bis(azanediyl))bis(carbonyl))bis(pyrrolidine-2,1-diyl))bis(2-oxo-1-phenylethane-2,1-diyl))dicarbamate]
EC50 [1]: 0.0157 nM | EC50 [2]: < 0.1 nM | EC50 [3]: 10 to 100 nM | EC50 [4]: > 1000 nM

COC(=O)N[C@@H](C(=O)N1CCC[C@H]1C(=O)Nc1ccc2c3ccc(NC(=O)[C@@H]4CCCN4C(=O)[C@H](NC(=O)OC)c4ccccc4)cc3n(CC3CC3)c2c1)c1ccccc1 [Example 16, dimethyl ((1R,1′R)-((2S,2′S)-(((9-(cyclopropylmethyl)-9H-carbazole-2,7-diyl)bis(azanediyl))bis(carbonyl))bis(pyrrolidine-2,1-diyl))bis(2-oxo-1-phenylethane-2,1-diyl))dicarbamate]
EC50 [1]: 0.0182 nM | EC50 [2]: 1 to 10 nM | EC50 [3]: 10 to 100 nM | EC50 [4]: > 1000 nM

COCCn1c2cc(NC(=O)[C@@H]3CCCN3C(=O)[C@H](NC(=O)OC)c3ccccc3)ccc2c2ccc(NC(=O)[C@@H]3CCCN3C(=O)[C@H](NC(=O)OC)c3ccccc3)cc21 [Example 21, dimethyl ((1R,1′R)-((2S,2′S)-(((9-(2-methoxyethyl)-9H-carbazole-2,7-diyl)bis(azanediyl))bis(carbonyl))bis(pyrrolidine-2,1-diyl))bis(2-oxo-1-phenylethane-2,1-diyl))dicarbamate]
EC50 [1]: 0.111 nM | EC50 [2]: 10 to 100 nM | EC50 [3]: 100 to 1000 nM | EC50 [4]: > 1000 nM
